From US4604386A, “3-(alkynylalkyloxy) cephalosporins” (Eli Lilly and Company, priority 1984, dated 1986)

Columns and labels:
[1] = in vivo; conditions: rat, po, 20 mg/kg
[2] = mouse, in vivo
[3] = in vivo; conditions: mouse, po, 20 mg/kg
[4] = rat, in vivo
[5] = tested on: Streptococcus group D X66; test: standard agar dilution-method test (MIC); assay type: cell-based
Text: (§1) Antibiotic activity of selected compounds of Formual 1 is illustrated by the following in vitro and in vivo test data in Table I, the minimum inhibitory concentration (MIC) for representative compounds against a wide range of gram-positive and gram-negative bacteria is presented. The MIC values were obtained by the standard agar dilution-method test.

[6] = tested on: Klebsiella pneumoniae KAE; test: standard agar dilution-method test (MIC); assay type: cell-based
Text: as §1

[7] = tested on: Escherichia coli EC14; test: standard agar dilution-method test (MIC); assay type: cell-based
Text: (§2) The MIC values were obtained by the standard agar dilution-method test.

[8] = tested on: Hemophilus influenzae 76; test: standard agar dilution-method test (MIC); assay type: cell-based
Text: as §2

[9] = tested on: Escherichia coli TEM; test: standard agar dilution-method test (MIC); assay type: cell-based
Text: as §2

[10] = tested on: Streptococcus pneumoniae Park I; test: standard agar dilution-method test (MIC); assay type: cell-based
Text: as §2

[11] = tested on: Staphylococcus aureus S13E; test: standard agar dilution-method test (MIC); assay type: cell-based
Text: as §2

[12] = tested on: Staphylococcus aureus X400; test: standard agar dilution-method test (MIC); assay type: cell-based
Text: as §2

[13] = tested on: Escherichia coli N10; test: standard agar dilution-method test (MIC); assay type: cell-based
Text: as §2

[14] = tested on: Hemophilus influenzae C.L.; test: standard agar dilution-method test (MIC); assay type: cell-based
Text: as §2

[15] = tested on: Klebsiella pneumoniae X65; test: standard agar dilution-method test (MIC); assay type: cell-based
Text: as §2

[16] = tested on: Staphylococcus epidermidis EPI1; test: standard agar dilution-method test (MIC); assay type: cell-based
Text: as §2

[17] = tested on: Streptococcus pyogenes C203; test: standard agar dilution-method test (MIC); assay type: cell-based
Text: as §2

[18] = tested on: Streptococcus group D 2041; test: standard agar dilution-method test (MIC); assay type: cell-based
Text: as §2

[19] = tested on: Staphylococcus epidermidis EPI2; test: standard agar dilution-method test (MIC); assay type: cell-based
Text: as §2

[20] = tested on: Staphylococcus aureus V41; test: standard agar dilution-method test (MIC); assay type: cell-based
Text: as §2

[21] = tested on: Klebsiella pneumoniae X26; test: standard agar dilution-method test (MIC); assay type: cell-based
Text: as §2

[22] = tested on: Staphylococcus aureus X1.1; test: standard agar dilution-method test (MIC); assay type: cell-based
Text: as §2

Compound | Minimum Inhibitory Concentration [5] | Minimum Inhibitory Concentration [6] | Minimum Inhibitory Concentration [7] | Minimum Inhibitory Concentration [8] | Minimum Inhibitory Concentration [9] | Minimum Inhibitory Concentration [10] | Minimum Inhibitory Concentration [11] | Minimum Inhibitory Concentration [12] | Minimum Inhibitory Concentration [13] | Minimum Inhibitory Concentration [14] | Minimum Inhibitory Concentration [15] | Minimum Inhibitory Concentration [16] | Minimum Inhibitory Concentration [17] | Minimum Inhibitory Concentration [18] | Minimum Inhibitory Concentration [19] | Minimum Inhibitory Concentration [20] | Minimum Inhibitory Concentration [21] | Minimum Inhibitory Concentration [22] | other results
C#CCOC1=C(C(=O)O)N2C(=O)[C@@H](NC(=O)[C@H](N)c3ccccc3)[C@H]2SC1 [Test Compound 1, 7-(R)-[2'-(R)-2'-amino-2'-phenylacetamido]-3-(prop-1'-yn-3'-yloxy)-3-cephem-4-carboxylic acid zwitterion] |  |  |  |  |  |  |  |  |  |  |  |  |  |  |  |  |  |  | concentration at 20 min [1]: 3900 ng/mL; concentration at 1 h [1]: 15900 ng/mL; concentration at 2 h [1]: 19300 ng/mL; concentration at 4 h [1]: 14700 ng/mL; concentration at 6 h [1]: 12300 ng/mL; concentration at 9 h [1]: 8500 ng/mL; oral absorption characteristics in mice [2]: excellent oral absorption characteristics; concentration at 20 min [3]: 23100 ng/mL; concentration at 40 min [3]: 12400 ng/mL; concentration at 1 h [3]: 4000 ng/mL; concentration at 2 h [3]: 850 ng/mL; plasma levels in rats [4]: high plasma levels
Benzhydryl 7-(R)-[(2'R)-2'-(N-(t-butylcarbamato))-2'-(para-hydroxyphenyl)acetamido]-3-(prop-1'-yn-3'-yloxy)-3-cephem-4-carboxylate [Example 4] | 64 µg/mL | 64 µg/mL | 2 µg/mL | 8 µg/mL | 8 µg/mL | 0.5 µg/mL | 16 µg/mL | 64 µg/mL | 4 µg/mL | 8 µg/mL | 2 µg/mL | 8 µg/mL | 0.06 µg/mL | 32 µg/mL | 1 µg/mL | 8 µg/mL | 2 µg/mL |  | 
Para-nitrobenzyl 7-(R)-[(2'R)-2'-(N-(t-butylcarbamato))-2' -phenylacetamido]-3-(prop-1'-yn-3'-yloxy)-3-cephem-4-carboxylate [Example 3] | 128 µg/mL | 128 µg/mL | 64 µg/mL | 128 µg/mL | 128 µg/mL | 1 µg/mL | 128 µg/mL | 128 µg/mL | 128 µg/mL | 128 µg/mL | 128 µg/mL | 128 µg/mL | 0.5 µg/mL | 128 µg/mL | 8 µg/mL | 128 µg/mL | 64 µg/mL | 8 µg/mL | 
Para-nitrobenzyl 7-(R)-phenoxyacetamido-3-(but-2'-yn-4'-yloxy)-3-cephem-4-carboxylate [Example 6] | 128 µg/mL | 128 µg/mL | 4 µg/mL | 4 µg/mL | 16 µg/mL | 0.25 µg/mL | 64 µg/mL | 64 µg/mL | 8 µg/mL | 8 µg/mL | 4 µg/mL | 16 µg/mL | 0.06 µg/mL | 32 µg/mL | 1 µg/mL | 64 µg/mL | 4 µg/mL | 0.5 µg/mL | 
Para-nitrobenzyl 7-(R)-phenoxyacetamido-3-(prop-1'-yn-3'-yloxy)-3-cephem-4-carboxylate [Example 1] | 128 µg/mL | 128 µg/mL | 2 µg/mL | 4 µg/mL | 8 µg/mL | 1 µg/mL | 32 µg/mL | 64 µg/mL | 4 µg/mL | 4 µg/mL | 4 µg/mL | 8 µg/mL | 0.25 µg/mL | 128 µg/mL | 2 µg/mL | 32 µg/mL | 2 µg/mL | 2 µg/mL | 
benzhydryl 7-(R)-[(2'R)-2'-(N-(t-butylcarbamato))-2'-phenylacetamido]-3-(prop-1'-yn-3'-yloxy)-3-cephem-4-carboxylate [Example 2] | 128 µg/mL | 128 µg/mL | 4 µg/mL | 8 µg/mL | 16 µg/mL | 0.25 µg/mL | 128 µg/mL | 128 µg/mL | 16 µg/mL | 4 µg/mL | 4 µg/mL | 32 µg/mL | 0.06 µg/mL | 64 µg/mL | 2 µg/mL | 128 µg/mL | 2 µg/mL | 2 µg/mL | 
